Consider four compounds from publication PMC10967730, “Identification and Functional Validation of Two Novel Antioxidant Peptides in Saffron” (Antioxidants, 2024).

Ends that are not written are not given here.

Series [1] relates to HepG2 cells. Briefly: MTT cell viability of HepG2 cells. As to conditions: for Effect on the viability of HepG2 cells: MTT, peptide 0.01–0.1 mg/mL.
Procedure: The HepG2 cells were cultured in DMEM (Gibco, New York, NY, USA) containing 10% (v/v) fetal bovine serum (HyClone, Logan, UT, USA) and 1% (v/v) penicillin/streptomycin (Gibco, New York, NY, USA) at 37 °C and 5% CO2.
The cells were passaged every 2 days, with a passage ratio of 1:2 when the cells grew to more than 80% confluence. Then, the HepG2 cells were distributed in 96-well culture plates at a density of 2.5 × 10^4 cells per well. When the cells were cultured for 24 h in DMEM medium, the medium was removed and replaced with a new medium containing various concentrations of H2O2 (100 mM, 300 mM, 500 mM, 700 mM, 900 mM, and 1100 mM), and the control cells were grown in DMEM. MTT (3-(4,5-dimethylthiazol2-yl)-2,5-diphenyltetrazolium bromide; Sigma-Aldrich, St. Louis, MO, USA) was added to the wells and the cells were incubated for 2 h at 37 °C. Then, DMSO was added to the wells for dissolution of formazan granules produced by the live cells and the absorbance measurements were performed at 540 nm to ensure the half inhibitory concentration (IC50) of H2O2 [30].
The safe and harmless peptide concentrations were also determined by the above method. Different concentrations of peptides (0.01 mg/mL, 0.02 mg/mL, 0.04 mg/mL, 0.06 mg/mL, 0.08 mg/mL, and 0.1 mg/mL) also act on cells, and cell viability was detected by MTT to screen out the safe and harmless peptide concentrations.
The conditions of series [2]: cited from earlier work. An excerpt:
Subsequently, the ABTS method was utilized to determine the total antioxidant activity of the stigma protein. […] We screened 289 saffron antioxidant peptides by comparing with the BIOPEP database. Among them, the saffron peptides with high abundance in the range from tetrapeptide to decapeptide were selected. […] It has been reported that hydrophobic a ...

With `OO` [H2O2], the Cell viability decline result in series [1] (HepG2, MTT, H2O2 300 mM) is reported as “about 50%”.
In the case of DGGSDYLGK [DGGSDYLGK], the “Effect on the viability of HepG2 cells” value in series [1] is listed as “no significant effects”.
For the compound `N[C@@H](Cc1ccccc1)C(=O)O` [Phe], the “Concentration at which ABTS scavenging activity is shown” value in series [2] is on record as 10^−3 mol/L.
VDPYFNK [VDPYFNK]: the “Effect on the viability of HepG2 cells” value in series [1] is “no significant effects”.
